Measured values taken from patent US5371099A, “Phenyl carboxamide isoxazoles” (Roussel-Uclaf, priority 1992, dated 1994).

What was measured:
[1] = Pharmacokinetic comparison, plasma concentrations of parent compound and active metabolite in mice; format: in vivo; details: 30 mg/kg orally
Experimental: A pharmacokinetic comparison was made between the compound of Example 8 in which R5 is methyl and the corresponding known compound in which R5 is hydrogen. Each compound was administered orally to mice at a dose of 30 mg/kg and plasma concentrations of the parent compound and the corresponding active metabolite were determined at various time points after administration.

[2] = tested on: Carrageenan rat paw oedema; experiment: Test 1: Carrageenan rat paw oedema (PO-R); format: in vivo, rat (male CFHB); details: 3 h; for inhibition in vivo at 10 mg/kg: 10 mg/kg p.o.; for inhibition in vivo at 50 mg/kg: 50 mg/kg p.o.
Experimental: Carrageenan rat paw oedema (PO-R)
One hour after the oral administration of the test compounds or control vehicle to groups of 6 to 12 male CFHB rats, weighing 160-180 g, 1 mg of carrageenan dissolved in 0.2 ml of saline was injected into the right hind foot pad. Contralateral paws received control saline injections. Paw oedema responses were assessed three hours later.
(§1) Doses are given in units of mg/kg p.o.

[3] = tested on: Delayed-type hypersensitivity rat paw oedema; experiment: Test 3: Delayed-type hypersensitivity rat paw oedema (DTH-R)
[4] = tested on: Delayed-type hypersensitivity mouse paw oedema; experiment: Test 2: Delayed-type hypersensitivity mouse paw oedema (DTH-M); format: in vivo, mouse (male CD-1); details: po, 24 h; for inhibition in vivo at 100 mg/kg: 100 mg/kg p.o.
Experimental: Delayed-type hypersensitivity mouse paw oedema (DTH-M)
Groups of 8 to 10 mice, male CD-1 weighing 25-30 g were sensitized by the subcutaneous injection of 1 mg of methylated bovine serum albumin (MBSA) in 0.2 ml volumes of saline/Freund's complete adjuvant (FCA) emulsion. Negative control groups received injections of saline/FCA emulsion. DTH paw oedema responses were assessed twenty-four hours after the right hind foot pad challenge with 0.1 mg of MBSA in 0.05 ml volumes of saline on day seven after sensitization. Contralateral paws received control saline injections. The test compounds or control vehicles were orally administered daily on days four, five, six and twice on day seven, one hour before and six hours after MBSA challenge.
as §1

[5] = Rattus norvegicus, po, 24 h, read-out: % Inhibition (Test 3, DTH-R)

Compound	inhibition in vivo at 10 mg/kg [3, 5] [%]	inhibition in vivo at 50 mg/kg [3, 5] [%]	inhibition in vivo at 100 mg/kg [4] [%]	inhibition in vivo at 50 mg/kg [2] [%]	further results
Cc1onc(C(=O)O)c1C(=O)Nc1ccc(OC(F)(F)F)cc1 [known compound, reference compound]					detectability of the active metabolite at 72 hours after administration ([1]; plasma, 72 hours): still being detectable
O=C(O)c1noc(C2CC2)c1C(=O)Nc1ccc(C(F)(F)F)cc1 [Example 9, 5-cyclopropyl-4-[N-(4-trifluoromethyl)phenyl]carbamoyl-3-isoxazolecarboxylic acid]	45	86	72		inhibition in vivo at 10 mg/kg [2]: -24%; pharmacokinetics compared with known compound in which R5 is hydrogen ([1]; effect of methyl substituent): improved pharmacokinetics
Cc1cc(NC(=O)c2c(C(=O)O)noc2C)ccc1Br [Example 3, 4-[N-(4-bromo-3-methyl)phenyl]carbamoyl-5-methyl-3-isoxazolecarboxylic acid]		-4	35	-10	
Cc1cc(NC(=O)c2c(C(=O)O)noc2C2CC2)ccc1C(F)(F)F [Example 10, 5-cyclopropyl-4-[N-(3-methyl-4-trifluoromethyl)phenyl]carbamoyl-3-isoxazolecarboxylic acid]		73	12	5	
Cc1cc(NC(=O)c2c(C(=O)O)noc2C)ccc1OC(F)(F)F [Example 8, 5-methyl-4-[N-(3-methyl-4-trifluoromethoxy)phenyl]carbamoyl-3-isoxazolecarboxylic acid]	34	79	48		inhibition in vivo at 10 mg/kg [2]: 16%; detectability of the active metabolite 24 hours after administration ([1]; plasma, 24 hours): no metabolite detectable
Cc1onc(C(=O)O)c1C(=O)Nc1ccc(C#N)cc1 [Example 2, 4-[N-(4-cyanophenyl)]carbamoyl-5-methyl-3-isoxazolecarboxylic acid]		-47	27	-25	
Cc1onc(C(=O)O)c1C(=O)Nc1ccc(SC(F)(F)F)cc1 [Example 7, 5-methyl-4-[N-(4-trifluoromethylthio)phenyl]carbamoyl-3-isoxazolecarboxylicacid]	42	73	14	1	
O=C(O)c1noc(C2CC2)c1C(=O)Nc1ccc(SC(F)(F)F)cc1 [Example 12, 5-cyclopropyl-4-[N-(4-trifluoromethylthio)phenyl]carbamoyl-3-isoxazolecarboxylic acid]	75		36		inhibition in vivo at 10 mg/kg [2]: 11%
Cc1cc(NC(=O)c2c(C(=O)O)noc2C)ccc1C(F)(F)F [Example 5, 5-methyl-4-[N-(3-methyl-4-trifluoromethyl)phenyl]carbamoyl-3-isoxazolecarboxylic acid]	44	95	44	18	
Cc1onc(C(=O)O)c1C(=O)Nc1ccc([N+](=O)[O-])cc1 [Example 1, 5-methyl-4-[N-(4-nitrophenyl)]carbamoyl-3-isoxazolecarboxylic acid]		28	41	-2	
CCOC(=O)c1noc(C)c1C(=O)Nc1ccc(C(F)(F)F)c(C)c1 [Example 18, Ethyl 5-methyl-4-[N-(3-methyl-4-trifluoromethyl)phenyl]carbamoyl-3-isoxazolecarboxylate]		50	3	23	
Cc1cc(NC(=O)c2c(C(=O)O)noc2C2CC2)ccc1OC(F)(F)F [Example 13, 5-cyclopropyl-4-[N-(3-methyl-4-trifluoromethoxy)phenyl]carbamoyl-3-isoxazolecarboxylic acid]	47		52		inhibition in vivo at 10 mg/kg [2]: 5%
Cc1cc(NC(=O)c2c(C(=O)O)noc2C)ccc1C#N [Example 6, 4-[N-(4-cyano-3-methyl)phenyl]carbamoyl-5-methyl-3-isoxazolecarboxylic acid]		25	5	5	
Cc1cc(NC(=O)c2c(C(=O)O)noc2C)ccc1Cl [Example 4, 4-[N-(4-chloro-3-methyl)phenyl]carbamoyl-5-methyl-3-isoxazolecarboxylic acid]		6	24	-10	
O=C(O)c1noc(C2CC2)c1C(=O)Nc1ccc(OC(F)(F)F)cc1 [Example 11]	95		65		inhibition in vivo at 3 mg/kg ([2]; 3 mg/kg p.o.): -2%; toxicity printed in place of % Inhibition (Test 3, DTH-R) ([3]; 50 mg/kg p.o.): Toxic; inhibition in vivo at 3 mg/kg [3, 5]: 65%; inhibition in vivo at 30 mg/kg ([4]; 30 mg/kg p.o.): 37%
